# Experimental data taken from US8952024B2, “Herbicidal pyrimidone derivatives” (E I du Pont de Nemours and Company, priority 2009, dated 2015).
# Test system: woolly cupgrass (Eriochloa villosa)
# Assay: Test B pre-/postemergence plant response
# Format: in vivo
# Details: 31 g ai/ha, postemergence; scale 0 to 100, 0 is no effect, 100 is complete control
# Summary of the method: (§1)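 Compound in solvent + surfactant applied pre-em (loam/sand) or post-em (plants 2–18 cm, peat medium); greenhouse hold 13–15 days; visual 0–100 control score.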
row,SMILES,"Plant response rating, Cupgrass, Woolly"
1,CCCCn1c(-c2ccccc2)ncc(C(=O)C2=C(O)CCCC2=O)c1=O [Compound 86],75

# Same assay, conditions: 62 g ai/ha, postemergence; 0 is no effect, 100 is complete control; 13 to 15 days
row,SMILES,"Cupgrass, Woolly plant response rating (0 to 100 scale)"
1,CCCCn1c(-c2ccccc2)ncc(C(=O)C2=C(O)CCCC2=O)c1=O [Compound 86],85

# Same assay, conditions: Postemergence, 125 g ai/ha; visual rating after 13 to 15 days, scale 0 (no effect) to 100 (complete control)
row,SMILES,"Plant response rating, Cupgrass, Woolly"
1,CCCCn1c(-c2ccccc2)ncc(C(=O)C2=C(O)CCCC2=O)c1=O [Compound 86],95

# Same assay, conditions: Postemergence, 250 g ai/ha; scale 0 to 100 (0 no effect, 100 complete control)
row,SMILES,"Plant response rating, Cupgrass, Woolly"
1,CCCCn1c(-c2ccccc2)ncc(C(=O)C2=C(O)CCCC2=O)c1=O [Compound 86],95

# Test system: bermudagrass (Cynodon dactylon)
# Assay: Test B pre-/postemergence plant response
# Format: in vivo
# Details: 31 g ai/ha, postemergence; scale 0 to 100, 0 is no effect, 100 is complete control
# Summary of the method: as §1
row,SMILES,"Plant response rating, Bermudagrass"
1,CCCCn1c(-c2ccccc2)ncc(C(=O)C2=C(O)CCCC2=O)c1=O [Compound 86],85

# Same assay, conditions: 62 g ai/ha, postemergence; 0 is no effect, 100 is complete control; 13 to 15 days
row,SMILES,Bermudagrass plant response rating (0 to 100 scale)
1,CCCCn1c(-c2ccccc2)ncc(C(=O)C2=C(O)CCCC2=O)c1=O [Compound 86],90

# Same assay, conditions: Postemergence, 125 g ai/ha; visual rating after 13 to 15 days, scale 0 (no effect) to 100 (complete control)
row,SMILES,"Plant response rating, Bermudagrass"
1,CCCCn1c(-c2ccccc2)ncc(C(=O)C2=C(O)CCCC2=O)c1=O [Compound 86],95

# Same assay, conditions: Postemergence, 250 g ai/ha; scale 0 to 100 (0 no effect, 100 complete control)
row,SMILES,"Plant response rating, Bermudagrass"
1,CCCCn1c(-c2ccccc2)ncc(C(=O)C2=C(O)CCCC2=O)c1=O [Compound 86],95

# Test system: lambsquarters (Chenopodium album)
# Assay: Test B pre-/postemergence plant response
# Format: in vivo
# Details: 31 g ai/ha, postemergence; scale 0 to 100, 0 is no effect, 100 is complete control
# Summary of the method: as §1
row,SMILES,"Plant response rating, Lambsquarters"
1,CCCCn1c(-c2ccccc2)ncc(C(=O)C2=C(O)CCCC2=O)c1=O [Compound 86],100

# Same assay, conditions: 62 g ai/ha, postemergence; 0 is no effect, 100 is complete control; 13 to 15 days
row,SMILES,Lambsquarters plant response rating (0 to 100 scale)
1,CCCCn1c(-c2ccccc2)ncc(C(=O)C2=C(O)CCCC2=O)c1=O [Compound 86],100

# Same assay, conditions: Postemergence, 250 g ai/ha; scale 0 to 100 (0 no effect, 100 complete control)
row,SMILES,"Plant response rating, Lambsquarters"
1,CCCCn1c(-c2ccccc2)ncc(C(=O)C2=C(O)CCCC2=O)c1=O [Compound 86],100

# Test system: morningglory (Ipomoea coccinea)
# Assay: Test B pre-/postemergence plant response
# Format: in vivo
# Details: 31 g ai/ha, postemergence; scale 0 to 100, 0 is no effect, 100 is complete control
# Summary of the method: as §1
row,SMILES,"Plant response rating, Morningglory"
1,CCCCn1c(-c2ccccc2)ncc(C(=O)C2=C(O)CCCC2=O)c1=O [Compound 86],70

# Same assay, conditions: 62 g ai/ha, postemergence; 0 is no effect, 100 is complete control; 13 to 15 days
row,SMILES,Morningglory plant response rating (0 to 100 scale)
1,CCCCn1c(-c2ccccc2)ncc(C(=O)C2=C(O)CCCC2=O)c1=O [Compound 86],80

# Same assay, conditions: Postemergence, 250 g ai/ha; scale 0 to 100 (0 no effect, 100 complete control)
row,SMILES,"Plant response rating, Morningglory"
1,CCCCn1c(-c2ccccc2)ncc(C(=O)C2=C(O)CCCC2=O)c1=O [Compound 86],100

# Test system: giant foxtail (Setaria faberii)
# Assay: Test B pre-/postemergence plant response
# Format: in vivo
# Details: 31 g ai/ha, postemergence; scale 0 to 100, 0 is no effect, 100 is complete control
# Summary of the method: as §1
row,SMILES,"Plant response rating, Foxtail, Giant"
1,CCCCn1c(-c2ccccc2)ncc(C(=O)C2=C(O)CCCC2=O)c1=O [Compound 86],90

# Same assay, conditions: 62 g ai/ha, postemergence; 0 is no effect, 100 is complete control; 13 to 15 days
row,SMILES,"Foxtail, Giant plant response rating (0 to 100 scale)"
1,CCCCn1c(-c2ccccc2)ncc(C(=O)C2=C(O)CCCC2=O)c1=O [Compound 86],95

# Same assay, conditions: Postemergence, 250 g ai/ha; scale 0 to 100 (0 no effect, 100 complete control)
row,SMILES,"Plant response rating, Foxtail, Giant"
1,CCCCn1c(-c2ccccc2)ncc(C(=O)C2=C(O)CCCC2=O)c1=O [Compound 86],98

# Test system: Italian ryegrass (Lolium multiflorum)
# Assay: Test B pre-/postemergence plant response
# Format: in vivo
# Details: 31 g ai/ha, postemergence; scale 0 to 100, 0 is no effect, 100 is complete control
# Summary of the method: as §1
row,SMILES,"Plant response rating, Ryegrass, Italian"
1,CCCCn1c(-c2ccccc2)ncc(C(=O)C2=C(O)CCCC2=O)c1=O [Compound 86],25

# Same assay, conditions: 62 g ai/ha, postemergence; 0 is no effect, 100 is complete control; 13 to 15 days
row,SMILES,"Ryegrass, Italian plant response rating (0 to 100 scale)"
1,CCCCn1c(-c2ccccc2)ncc(C(=O)C2=C(O)CCCC2=O)c1=O [Compound 86],30

# Same assay, conditions: Postemergence, 250 g ai/ha; scale 0 to 100 (0 no effect, 100 complete control)
row,SMILES,"Plant response rating, Ryegrass, Italian"
1,CCCCn1c(-c2ccccc2)ncc(C(=O)C2=C(O)CCCC2=O)c1=O [Compound 86],60

# Test system: green foxtail (Setaria viridis)
# Assay: Test B pre-/postemergence plant response
# Format: in vivo
# Details: 31 g ai/ha, postemergence; scale 0 to 100, 0 is no effect, 100 is complete control
# Summary of the method: as §1
row,SMILES,"Plant response rating, Foxtail, Green"
1,CCCCn1c(-c2ccccc2)ncc(C(=O)C2=C(O)CCCC2=O)c1=O [Compound 86],70

# Same assay, conditions: 62 g ai/ha, postemergence; 0 is no effect, 100 is complete control; 13 to 15 days
row,SMILES,"Foxtail, Green plant response rating (0 to 100 scale)"
1,CCCCn1c(-c2ccccc2)ncc(C(=O)C2=C(O)CCCC2=O)c1=O [Compound 86],95

# Same assay, conditions: Postemergence, 250 g ai/ha; scale 0 to 100 (0 no effect, 100 complete control)
row,SMILES,"Plant response rating, Foxtail, Green"
1,CCCCn1c(-c2ccccc2)ncc(C(=O)C2=C(O)CCCC2=O)c1=O [Compound 86],100
